# Source: patent publication US20060105361A1, “Donor yeast strain for transfer of genetic material” (priority 2004, published 2006)
# System: wild-type strains
# Assay: Spot tests of yeast strains on SD-leu plates containing camptothecin and CuSO4
# Assay type: cell-based, Saccharomyces cerevisiae
# Procedure: The mutant and wild-type TOP1 were cloned under the control of the copper-inducible CUP1 promoter. These plasmids were transformed into the MATa universal donor strain (J1361), the MATalpha deletion library wild-type strain (BY4742) and rad9 and rad50 deletion strains from the library. Transformation reactions were plated on SD-leu media and incubated for 3 days at 30° C. to allow colony growth. […] B. Transformants from A were grown overnight in liquid SD-leu media, equalized by OD, serially diluted and spotted onto SD-leu plates containing the indicated concentrations of CuSO4. Each panel is a group of three strains containing the vector, TOP1 or TOP1-T722A plasmids as indicated on the right. […] Spot tests shown at the bottom contain 5 μg/ml camptothecin.
structure (smiles),measurement,setting,value
CC[C@@]1(O)C(=O)OCc2c1cc1n(c2=O)Cc2cc3ccccc3nc2-1 [camptothecin],sensitivity (viability in spot test) of strains containing the TOP1-T722A plasmid,"5 μg/ml camptothecin, wild-type cells with CUP1-promoter TOP1-T722A plasmid, graded CuSO4",roughly additive effect of the TOP1-T722A mutant in conjunction with camptothecin
same,sensitivity (viability in spot test) of strains containing the TOP1 plasmid,"5 μg/ml camptothecin, wild-type strain (BY4742) with CUP1-promoter TOP1 plasmid, graded CuSO4",only sensitive to the drug when Top1 is overexpressed by 100 μM copper
same,viability of the library strain on plates containing camptothecin,"library strain is TOP1, relatively low doses of drug, no TOP1 overexpression",do not affect viability
